Data reported in PubChem BioAssay (NCI).
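Step 1: Grow cells in 96-well plates. Step 2: Expose to compound for 48 hours at 5 concentrations. Step 3: Interpolate endpoints linearly; if unreached, use highest concentration. GI50 = concentration required for 50% inhibition of growth. At the TGI there is no net growth.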

Experiments:
Assay in all cases: DTP human tumour cell line panel, 48 h
[1] = tested on: SNB-19 CNS
[2] = tested on: HCT-15 colon
[3] = tested on: HT29 colon
[4] = tested on: SN12C renal
[5] = tested on: COLO 205 colon
[6] = tested on: IGROV1 ovarian
[7] = tested on: M14 melanoma
[8] = tested on: OVCAR-3 ovarian
[9] = tested on: SF-295 CNS
[10] = tested on: MDA-MB-435

SMILES: CC(=O)[O][Pb]([O]C(C)=O)([c]1ccccc1)[c]1ccccc1
- GI50 [1]: 23.8 µM
- TGI [1]: 46.6 µM
- GI50 [2]: 7.06 µM
- TGI [2]: > 100 µM
- GI50 [3]: 14.5 µM
- TGI [3]: > 100 µM
- GI50 [4]: 3.61 µM
- TGI [4]: > 100 µM
- GI50 [5]: 1.76 µM
- TGI [5]: 15 µM
- GI50 [6]: 5.98 µM
- TGI [6]: > 100 µM
- GI50 [7]: > 48 µM
- TGI [7]: > 100 µM
- GI50 [8]: 2.4 µM
- TGI [8]: > 100 µM
- GI50 [9]: 46.6 µM
- TGI [9]: > 100 µM

SMILES: CCC[CH2][Sn]([CH2]CCC)([O]C(C)=O)[O]C(C)=O
- GI50 [1]: 1.14 µM
- TGI [1]: 2.35 µM
- GI50 [2]: 1.43 µM
- TGI [2]: 3.14 µM
- GI50 [3]: 1.7 µM
- TGI [3]: 3.53 µM
- GI50 [4]: 1.24 µM
- TGI [4]: 2.54 µM
- GI50 [5]: 1.81 µM
- TGI [5]: 4.29 µM
- GI50 [6]: 1.32 µM
- TGI [6]: 1.96 µM
- GI50 [7]: 1.74 µM
- TGI [7]: 4.26 µM
- GI50 [8]: 1.53 µM
- TGI [8]: 3.02 µM
- GI50 [9]: 1.85 µM
- TGI [9]: 3.79 µM

SMILES: CC(=O)/C(=C\c1ccco1)C(=O)Nc1ccccc1
- TGI [1]: > 100 µM
- TGI [2]: > 100 µM
- TGI [3]: > 100 µM
- TGI [4]: > 100 µM
- TGI [6]: > 100 µM
- TGI [7]: > 100 µM
- TGI [8]: > 100 µM
- TGI [9]: > 100 µM

SMILES: CC12CCC(=O)C(O1)C1C(=O)c3cc4ccccc4cc3C(=O)C12 (centres undefined)
- GI50 [1]: 38.1 µM
- TGI [1]: > 100 µM
- GI50 [2]: 17.3 µM
- TGI [2]: 36.8 µM
- GI50 [3]: 21 µM
- TGI [3]: 51.1 µM
- GI50 [4]: 16.5 µM
- TGI [4]: 36.4 µM
- GI50 [5]: 19.9 µM
- TGI [5]: 47.1 µM
- GI50 [10]: 17.7 µM
- TGI [10]: 34 µM
- GI50 [6]: 23.9 µM
- TGI [6]: > 100 µM
- GI50 [7]: 21.5 µM
- TGI [7]: 53.3 µM

SMILES: COC(=O)[C@@H]1CSC(=S)N1C(=O)C[C@H]1CC=CC[C@H]1CC(=O)Sc1ccccc1
- TGI [1]: 34.8 µM
- TGI [2]: 32.3 µM
- TGI [3]: 37.4 µM
- TGI [4]: 30.4 µM
- TGI [5]: 37.1 µM
- TGI [6]: 39.7 µM
- TGI [7]: 32.4 µM
- TGI [8]: 36.2 µM
- TGI [9]: 45.3 µM

SMILES: NCC1(N2CCOCC2)C2CCCC21CO (centres undefined)
- TGI [1]: > 100 µM
- TGI [2]: > 100 µM
- TGI [3]: > 100 µM
- TGI [4]: > 100 µM
- TGI [5]: > 100 µM
- TGI [6]: > 100 µM
- TGI [7]: > 100 µM
- TGI [8]: > 100 µM
- TGI [9]: > 100 µM

SMILES: CC1CC2C(=O)NC(=O)C2c2[nH]c3ccccc3c21 (centres undefined)
- TGI [2]: > 100 µM
- TGI [3]: > 100 µM
- TGI [4]: > 100 µM
- TGI [5]: > 100 µM
- TGI [6]: > 100 µM
- TGI [7]: > 100 µM
- TGI [8]: > 100 µM
- TGI [9]: > 100 µM

SMILES: COC12C=CC(CC1)c1c(O)ccc(O)c12 (centres undefined)
- TGI [1]: > 100 µM
- TGI [2]: > 55.9 µM
- TGI [3]: > 100 µM
- TGI [4]: > 100 µM
- TGI [5]: 57 µM
- TGI [6]: > 100 µM
- TGI [7]: > 100 µM
- TGI [8]: 44.2 µM
- TGI [9]: > 100 µM

SMILES: C=C1C(=O)O[C@H]2C[C@@H](C)[C@@H]3CC(=O)OC[C@@]3(C)CC12 (some centres undefined)
- TGI [1]: > 100 µM
- TGI [2]: > 100 µM
- TGI [3]: 50.1 µM
- TGI [4]: 60.8 µM
- TGI [5]: 60.7 µM
- TGI [6]: > 100 µM
- TGI [7]: 31.6 µM
- TGI [8]: 74.6 µM
- TGI [9]: 76.2 µM
